We go through 13 compounds from BindingDB's records for doi:10.1021/acs.jmedchem.8b00685 (University of Glasgow, 2018).

This assay can be described thus: Inhibition of human 20S constitutive proteasome beta-2 using Bz-VGR-AMC as substrate after 60 mins by fluorescence assay.

Each structure is given as a SMILES string.

By IC50 is commonly meant the point on the concentration scale where inhibition reaches its midpoint. `CC(C)C[C@H](NC(=O)[C@H](CC(C)C)NC(=O)[C@H](Cc1ccccc1)NC(=O)OC(C)(C)C)C(=O)N[C@@H](CCCNC(=N)N)CS(=O)(=O)F` gave an IC50 of 700 nM. The result for `CC(C)C[C@H](NC(=O)[C@H](CC(C)C)NC(=O)[C@@H](N)Cc1ccccc1)C(=O)N[C@@H](Cc1ccc(CN)cc1)CS(=O)(=O)F` reads 140 nM; that for `CC(C)C[C@H](NC(=O)[C@H](Cc1ccccc1)N=[N+]=[N-])C(=O)N[C@@H](CC(C)C)C(=O)N[C@@H](CCCNC(=N)N)CS(=O)(=O)F`, 350 nM. The same measure for `CC(C)C[C@H](NC(=O)[C@H](Cc1ccccc1)N=[N+]=[N-])C(=O)N[C@@H](CC(C)C)C(=O)N[C@@H](CCCCN)CS(=O)(=O)F`: 700 nM; for `CC(=O)N[C@@H](Cc1ccccc1)C(=O)N[C@@H](CC(C)C)C(=O)N[C@@H](CC(C)C)C(=O)N[C@@H](Cc1ccc(CN)cc1)CS(=O)(=O)F`: 119 nM; for `CC(C)C[C@H](NC(=O)[C@H](CC(C)C)NC(=O)[C@H](Cc1ccccc1)NC(=O)OCc1ccccc1)C(=O)N[C@@H](CCCNC(=N)N)CS(=O)(=O)F`: 150 nM.

For `CC(C)C[C@H](NC(=O)OCc1ccccc1)C(=O)N[C@@H](CC(C)C)C(=O)N[C@@H](CC(C)C)C(=O)N[C@@H](CCCNC(=N)N)CS(=O)(=O)F`, half-maximal inhibition (IC50) required 200 nM. The IC50 values of the last two compounds are within 1.5-fold of each other. The same measure for `CC(C)C[C@H](NC(=O)[C@H](CC(C)C)NC(=O)[C@@H](N)Cc1ccccc1)C(=O)N[C@@H](Cc1ccc(N)cc1)CS(=O)(=O)F`: 220 nM; for `CC(C)C[C@H](NC(=O)[C@H](CC(C)C)NC(=O)[C@@H](N)Cc1ccccc1)C(=O)N[C@@H](CCCNC(=N)N)CS(=O)(=O)F`: 250 nM. For `CC(=O)N[C@@H](Cc1ccccc1)C(=O)N[C@@H](CC(C)C)C(=O)N[C@@H](CC(C)C)C(=O)N[C@@H](Cc1ccc(N)cc1)CS(=O)(=O)F`, half-maximal inhibition (IC50) was put at 2100 nM. The result for `CC(C)C[C@H](NC(=O)[C@H](CC(C)C)NC(=O)[C@@H](N)Cc1ccccc1)C(=O)N[C@@H](CCCCN)CS(=O)(=O)F` reads 470 nM. Take `CC(=O)N[C@@H](Cc1ccccc1)C(=O)N[C@@H](CC(C)C)C(=O)N[C@@H](CC(C)C)C(=O)N[C@@H](CCCNC(=N)N)CS(=O)(=O)F`: the IC50 came to 980 nM. Compound `CC(=O)N[C@@H](Cc1ccccc1)C(=O)N[C@@H](CC(C)C)C(=O)N[C@@H](CC(C)C)C(=O)N[C@@H](CCCCN)CS(=O)(=O)F` came in with an IC50 of 1500 nM.
